Measured values taken from patent US7244738B2, “Arylamine-substituted quinazolinone compounds useful as alpha 1A/B adrenergic receptor antagonists” (Roche Palo Alto LLC, priority 2003, dated 2007).

Tests used:
[1] = molecular target: T1, Alpha1A adrenoceptor (Homo sapiens, UniProt P35348); experiment: [3H]prazosin binding (alpha1-adrenoceptor) assay, membranes of transfected CHO-K1 cells; settings: transfected CHO-K1 cell membranes, read-out: pKi alpha 1A (converted)
T1 construct: expressed in transfected cells; host or cells: CHO-K1
T1 sequence (P35348 1-466): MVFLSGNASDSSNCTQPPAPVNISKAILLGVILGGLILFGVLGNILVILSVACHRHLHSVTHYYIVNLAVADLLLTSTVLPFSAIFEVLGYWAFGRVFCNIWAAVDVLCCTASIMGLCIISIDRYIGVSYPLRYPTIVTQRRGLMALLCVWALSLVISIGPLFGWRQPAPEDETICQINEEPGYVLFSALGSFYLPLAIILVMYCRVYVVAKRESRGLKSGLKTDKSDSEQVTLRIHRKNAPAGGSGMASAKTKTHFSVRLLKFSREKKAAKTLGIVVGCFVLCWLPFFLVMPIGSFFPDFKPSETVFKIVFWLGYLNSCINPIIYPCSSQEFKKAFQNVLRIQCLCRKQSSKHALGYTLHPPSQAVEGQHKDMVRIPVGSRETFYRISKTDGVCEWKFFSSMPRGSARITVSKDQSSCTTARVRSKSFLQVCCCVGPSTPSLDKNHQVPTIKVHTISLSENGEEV
Method: (§1) Example [^3H]prazosin Binding (Alpha1-Adrenoceptor) Assay
(§2) Alpha1A, alpha1B, and alpha1D adrenoceptor transfected CHO-K1 cells, prepared using the methods described by Chang et al., FEBS Lett. 1998, 422:279–283, were grown to confluence in T-162 tissue culture flasks in Ham's F-12 culture medium supplemented with 10% fetal bovine serum, geneticin (150 μg/mL) and streptomycin/penicillin (30 μg/mL/30 μg/mL) at 37° C. in 7% CO2. Cells were harvested by incubating with phosphate-buffered saline (PBS) containing 30 μM EDTA for 5–10 min at 37° C. Cells were pelleted by centrifuging at 500×g for 5 min, and the pelleted cells were homogenized (Polytron homogenizer) in 10 vols (w/v) of 50 mM Tris, 1 mM EDTA, (homogenisation buffer, pH 7.4 at 4° C.). The homogenate was centrifuged at 45,000×g for 20 min. The pellet was resuspended in the homogenizing buffer and rehomogenized. The resulting homogenate was centrifuged at 45,000×g for 20 min. The pellet was resuspended in 50 mM Tris buffer (pH 7.4 at 4° C.), aliquoted, frozen, and stored at −80° C. for further use.
(§3) The membranes were thawed at room temperature and diluted in assay buffer (50 mM Tris buffer at […]) at 37° C. and homogenized using the Polytron tissue disrupter. The membranes were incubated with the radioligand ([^3H]prazosin, NEN, 0.1–0.5 nM) and test compound at 37° C. for 30 min. The membranes were then filtered over polyethyleneimine-treated GF/B unifilter plates using a Packard Filtermate Harvester and washed with ice-cold 50 mM Tris-HCl, 1 mM EDTA buffer (3×3 sec. washes). Scintillation cocktail was added to the filter plates and bound radioligand determined by liquid scintillation spectrophotometry.
(§4) For each experiment, total binding (in the absence of any test or reference compounds) and non-specific binding (10 μM phentolamine) were determined. For each sample tested, the concentration producing 50% inhibition of binding (IC50) and Hill Slope (nH) was determined using iterative non-linear curve fitting techniques with Kaleidagraph (Synergy Software) or other appropriate software. If the radioligand KD was known, the inhibition dissociation constant (KI) of each ligand was determined according to the method of Cheng and Prusoff (Cheng, Y-C. and Prusoff, W. H., Biochem. Pharmacol., 1973, 22, 3099–3108).

[2] = molecular target: T2, alpha1B adrenoceptor (Homo sapiens, UniProt P35368); experiment: as above; settings: transfected CHO-K1 cell membranes, read-out: pKi alpha 1B (converted)
T2 construct: expressed in transfected cells; host or cells: CHO-K1
T2 sequence (P35368 1-520): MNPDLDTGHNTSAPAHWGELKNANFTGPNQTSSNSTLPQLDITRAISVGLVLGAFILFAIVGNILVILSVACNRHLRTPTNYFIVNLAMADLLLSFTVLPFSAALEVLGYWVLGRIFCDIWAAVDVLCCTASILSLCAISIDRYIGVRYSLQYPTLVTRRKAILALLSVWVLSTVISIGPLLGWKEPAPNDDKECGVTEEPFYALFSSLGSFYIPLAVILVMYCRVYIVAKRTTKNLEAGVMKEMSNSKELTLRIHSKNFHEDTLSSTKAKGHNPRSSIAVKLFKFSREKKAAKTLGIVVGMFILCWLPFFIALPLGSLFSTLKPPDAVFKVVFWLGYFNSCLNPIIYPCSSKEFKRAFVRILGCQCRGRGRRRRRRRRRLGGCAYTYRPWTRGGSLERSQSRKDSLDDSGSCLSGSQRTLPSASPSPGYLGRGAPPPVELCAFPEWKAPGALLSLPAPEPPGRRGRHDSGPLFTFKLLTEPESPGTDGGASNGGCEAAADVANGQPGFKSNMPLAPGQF
Method: as §1, §2, §3, §4

[3] = molecular target: T3, alpha1D adrenoceptor (Homo sapiens, UniProt P25100); experiment: as above; settings: transfected CHO-K1 cell membranes, read-out: pKi alpha 1D (converted)
T3 construct: expressed in transfected cells; host or cells: CHO-K1
T3 sequence (P25100 1-572): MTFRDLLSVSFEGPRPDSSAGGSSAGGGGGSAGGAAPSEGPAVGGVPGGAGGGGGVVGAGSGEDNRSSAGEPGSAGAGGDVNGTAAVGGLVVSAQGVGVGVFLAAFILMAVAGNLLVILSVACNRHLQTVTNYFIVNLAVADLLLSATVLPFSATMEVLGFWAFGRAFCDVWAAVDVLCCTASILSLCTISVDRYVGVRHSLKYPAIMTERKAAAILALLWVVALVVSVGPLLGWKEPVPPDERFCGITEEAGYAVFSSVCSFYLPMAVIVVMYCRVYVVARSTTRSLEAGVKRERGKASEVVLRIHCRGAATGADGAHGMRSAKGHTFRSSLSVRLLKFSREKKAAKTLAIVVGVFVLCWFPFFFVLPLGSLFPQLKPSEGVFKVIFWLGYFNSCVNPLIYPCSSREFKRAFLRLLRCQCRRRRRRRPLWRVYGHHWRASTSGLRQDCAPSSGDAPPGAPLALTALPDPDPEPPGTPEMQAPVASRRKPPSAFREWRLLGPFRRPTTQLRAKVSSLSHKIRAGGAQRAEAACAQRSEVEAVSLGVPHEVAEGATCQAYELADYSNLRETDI
Method: as §1, §2, §3, §4

[4] = tested on: anesthetized dog; experiment: Dog in vivo intraurethral and blood pressure assay; settings: anesthetized male Mongrel dog, i.v. bolus, increasing doses
Method: Dog In Vivo Intraurethral and Blood Pressure Assay
The following describes an in vivo assay for measuring the relative effect of test compounds on hypogastric nerve stimulation-induced increases in intraurethral pressure and phenylephrine-induced increases in diastolic blood pressure in anesthetized dog.
Male Mongrel dogs (10 to 20 kg) were fasted for 12 to 18 hours and anesthetized with phenobarbital sodium (36 mg/kg, i.v.). An endotracheal tube was inserted and thereafter the lungs were mechanically ventilated with room air. The right femoral vein was isolated and cannulated with two polyethylene cannulae, one for the administration of a continuous infusion of phenobarbital sodium (5 to 10 mg/kg/hr) and the other for bolus administration of test substances. The right femoral artery was isolated and cannulated to the abdominal aorta with a fluid filled polyethylene cannula connected to an external pressure transducer for monitoring diastolic aortic pressure (DAP). The bladder was exposed via a ventral midline abdominal incision and emptied of urine through a 22 gauge needle. The bladder was cannulated through a stab incision with a water filled balloon catheter connected to an external pressure transducer for monitoring prostatic intraurethral pressure (IUP). The right hypogastric nerve (HGN) was carefully isolated and attached to a Dastre's electrode for nerve stimulation. […]

Row | Ki [1] [nM] | Ki [2] [nM] | Ki [3] [nM] | SMILES | inhibition of hypogastric nerve (HGN) stimulation-induced increases in intraurethral pressure (IUP) [4] | inhibition of phenylephrine-induced increases in diastolic aortic pressure (DAP) [4]
1 | 1.55 | 3.72 | 141 | COc1cc2[nH]c(N(C)Cc3cccc(C(C)N(C)C)c3)nc(=O)c2c(OC)c1OC (centres unmarked) [2-{[3-(1-Dimethylamino-ethyl)-benzyl]-methyl-amino}-5,6,7-trimethoxy-1H-quinazolin-4-one] | – | –
2 | 3.24 | 14.8 | 2630 | COc1cc2[nH]c(N(C)Cc3ccc4c(c3)CN(C)C4)nc(=O)c2c(C)c1OC [6,7-Dimethoxy-5-methyl-2-[methyl-(2-methyl-2,3-dihydro-1H-isoindol-5-ylmethyl)-amino]-1H-quinazolin-4-one] | – | –
3 | 7.08 | 6.92 | 794 | COc1cc2[nH]c(N(C)Cc3ccc(OCC(O)CO)cc3)nc(=O)c2c(C)c1OC (centres unmarked) [2-{[4-(2,3-dihydroxy-propoxy)-benzyl]-methyl-amino}-6,7-dimethoxy-5-methyl-1H-quinazolin-4-one] | – | –
4 | 7.41 | 0.891 | 69.2 | COc1cc2[nH]c(NCc3cccc(N=C(C)N(C)C)c3)nc(=O)c2c(C)c1OC | – | –

Second part, the compound before the results:

Row | SMILES | Ki [1] [nM] | Ki [2] [nM] | Ki [3] [nM] | inhibition of hypogastric nerve (HGN) stimulation-induced increases in intraurethral pressure (IUP) [4] | inhibition of phenylephrine-induced increases in diastolic aortic pressure (DAP) [4]
5 | CCN(C)Cc1ccc(CN(C)c2nc(=O)c3c(OC)c(OC)c(OC)cc3[nH]2)cc1 [2-({4-[(ethyl-methyl-amino)-methyl]-benzyl}-methyl-amino)-5,6,7-trimethoxy-1H-quinazolin-4-one] | 3.16 | 3.09 | 550 | – | –
6 | COc1cc2[nH]c(N(C)Cc3cccc(CN4CCC(OC)C4)c3)nc(=O)c2c(OC)c1OC (centres unmarked) [5,6,7-trimethoxy-2-{[3-(3-methoxy-pyrrolidin-1-ylmethyl)-benzyl]-methyl-amino}-1H-quinazolin-4-one] | 5.37 | 7.41 | 5370 | – | –
7 | COc1cc2[nH]c(N(C)Cc3cccc(C4=NCCO4)c3)nc(=O)c2c(OC)c1OC [2-{[3-(4,5-dihydro-oxazol-2-yl)-benzyl]-methyl-amino}-5,6,7-trimethoxy-1H-quinazolin-4-one] | 813 | 14.8 | 2630 | – | –
8 | COc1cc2nc(N3CCN(C(=O)c4ccco4)CC3)nc(N)c2cc1OC [prazosin] | – | – | – | inhibited increases in IUP and DAP in similar fashion | inhibited increases in IUP and DAP in similar fashion
